The results in this text go back to patent US20110014291A1, “Novel Polymorphs of Bosentan” (ACTAVIS GROUP PTC EHF, priority 2007, published 2011).

The nature of the series: dissolution properties of the solid form. It counts as physicochemical. The following applies: conditions not given.

The structures appear in SMILES notation.

For `COc1ccccc1Oc1c(NS(=O)(=O)c2ccc(C(C)(C)C)cc2)nc(-c2ncccn2)nc1OCCO` [amorphous form, bosentan], the dissolution properties entry is on record as “advantageous dissolution properties”.
